Series [1] in a line: Inhibition of rat recombinant FLAG-tagged PTGES expressed in baculovirus infected Hi-5 insect cells using prostaglandin H2 as substrate incubated for 20 mins followed by substrate addition and incubated for 60 sec by TR-FRET assay. (Time-resolved FRET reads energy transfer from a long-lived donor to a nearby acceptor.)
Series [2] deals with T1, Prostaglandin E synthase (Mus musculus, UniProt Q9JM51).
T1 sequence (Q9JM51 whole entry): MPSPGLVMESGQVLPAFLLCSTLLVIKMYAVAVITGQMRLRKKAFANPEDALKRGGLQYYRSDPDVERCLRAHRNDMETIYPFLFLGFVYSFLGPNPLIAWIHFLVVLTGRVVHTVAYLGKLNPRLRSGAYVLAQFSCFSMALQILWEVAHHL
Nature of the series: Inhibition of mouse recombinant FLAG-tagged PTGES expressed in baculovirus infected Hi-5 insect cells using prostaglandin H2 as substrate incubated for 20 mins followed by substrate addition and incubated for 60 sec by TR-FRET assay.

For series [3], the target named is T2, Prostaglandin E synthase (Homo sapiens, UniProt O14684).
T2 sequence (O14684 whole entry): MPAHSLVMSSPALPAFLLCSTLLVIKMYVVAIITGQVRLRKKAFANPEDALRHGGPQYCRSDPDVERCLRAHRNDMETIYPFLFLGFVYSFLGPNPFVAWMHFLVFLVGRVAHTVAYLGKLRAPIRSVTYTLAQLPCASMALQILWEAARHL
Put plainly: Inhibition of human recombinant FLAG-tagged PTGES expressed in baculovirus infected Hi-5 insect cells using prostaglandin H2 as substrate preincubated for 20 mins followed by substrate addition and incubated for 60 sec by TR-FRET assay.

Series [4] in a line: Selectivity ratio of IC50 for mouse recombinant FLAG-tagged PTGES to human recombinant FLAG-tagged PTGES expressed in baculovirus infected Hi-5 insect cells using prostaglandin H2 as substrate preincubated for 20 mins followed by substrate addition and incubated for 60 sec by TR-FRET assay.
Series [5] in a line: Apparent permeability across apical to basolateral side in human Caco2 cells measured at 2 uM incubated for 2 hrs by LC/MS/MS analysis. It counts as ADME, cell-based. Particulars: Caco-2.
Series [6] deals with Mus musculus. Nature of the series: Antinociceptive activity in C57BL/6 mouse model of complete Freund's adjuvant-induced inflammatory pain assessed as inhibition of PGE2 production at 100 mg/kg, po administered after 2 days of CFA induction and measured after 1 hr by ELISA. Format: functional, organism-based. In general terms: An ELISA detects its analyte on a solid surface through an enzyme-linked reagent.

A short description of series [7]: Oral bioavailability in Wistar rat at 0.5 to 1 mg/kg measured upto 24 hrs by LC-MS/MS. Format: ADME, organism-based. Conditions: in vivo.
Series [8] relates to Rattus norvegicus. Nature of the series: Antihyperalgesia activity in Sprague-Dawley rat endometriosis model assessed as viscero-motor response at 75 mg/kg, po bid administered for 3 to 5 weeks of post surgery by EMG method. Format: functional, organism-based.
Series [9] relates to Rattus norvegicus. Put plainly: Antihyperalgesia activity in Sprague-Dawley rat endometriosis model assessed as decrease in proliferation of lesions by measuring expression of Ki67 at 75 mg/kg, po bid administered for 3 to 5 weeks of post surgery by RT-PCR analysis. Format: functional, organism-based.
The nature of series [10]: Hepatic extraction ratio in Han Wistar rat liver microsomes at 1 uM measured upto 90 mins by LC-MS/MS. Format: ADME, Microsome. Conditions: read-out: ERH. For orientation: Liver microsomes are a subcellular fraction often used to study metabolism.
Series [11] can be described thus: Efflux ratio of apparent permeability from basolateral to apical over apical to basolateral side in human Caco2 cells at 2 uM incubated for 2 hrs by LC/MS/MS analysis. Particulars: Caco-2. Format: ADME, cell-based.
Series [12] is described as follows: Total blood clearance in Wistar rat blood at 0.5 to 1 mg/kg, […] 0.5 to 10 mg/kg, ig measured upto 24 hrs by LC-MS/MS. Particulars: whole blood. Format: ADME, organism-based.
Series [13] in a line: Volume of distribution at steady state in Wistar rat blood at 0.5 to 1 mg/kg, […] 0.5 to 10 mg/kg, ig measured upto 24 hrs by LC-MS/MS. Conditions: in vivo. It counts as ADME, organism-based.
The nature of series [14]: Half life in Wistar rat blood at 0.5 to 1 mg/kg, […] 0.5 to 10 mg/kg, ig LC-MS/MS. Format: ADME, organism-based. Conditions: whole blood.
Series [15] deals with Mus musculus. Put plainly: Antinociceptive activity in C57BL/6 mouse model of complete Freund's adjuvant-induced inflammatory pain assessed as reduction in pain-related behavior at 30 to 100 mg/kg, po administered after 2 days of CFA induction and measured after 1 hr by using Plexiglas chamber. It counts as functional, organism-based.
In series [16] the test system is Mus musculus. Put plainly: Antinociceptive activity in C57BL/6 mouse model of complete Freund's adjuvant-induced inflammatory pain assessed as inhibition of PGE2 production at 30 to 100 mg/kg, po administered after 2 days of CFA induction and measured after 1 hr by ELISA. It counts as functional, organism-based.
The nature of series [17]: Ratio of unbound drug level in CFA-induced mouse to IC50 for mouse recombinant FLAG-tagged PTGES inhibition. Particulars: in vivo. Format: ADME.
Series [18] has as its system Rattus norvegicus. Nature of the series: Antihyperalgesia activity in Sprague-Dawley rat endometriosis model assessed as viscero-motor response at 75 mg/kg, po bid administered for 3 to 5 weeks of post surgery and measured after 1 week by EMG method. It counts as functional, organism-based.

Activity calls are given as the source filed them. No cut-off for these calls is given here.

As usually defined, the IC50 is the concentration at which inhibition is half-maximal. By Papp A→B is commonly meant how fast a substance crosses the layer from the apical side. What is called bioavailability is the share of a dose that reaches the circulation, judged against a reference dose that is usually intravenous. A high value points to much systemic uptake. What is called efflux ratio is a quotient of directional permeabilities that is used to spot active efflux. As a reminder, the CL/F is the apparent clearance, not corrected for the fraction that reaches the circulation. As a reminder, the half-life is the time in which the quantity being followed falls by half. The low end stands for rapid decline, the high end for slow decline.

On to `CC[C@@H](CC(=O)O)c1cccc(NC(=O)C(c2ccc(-c3cncc(CC(C)C)c3)cc2)C2CCCC2)c1C` (stereo not given in full), for which the values for the IC50 (in [1]; at Prostaglandin E synthase [2]) were 162 nM and 84 nM, respectively.

With `Cc1c(CCC(=O)O)cccc1NC(=O)C(c1cccc(-c2ccccc2)c1)C1CCCC1` (stereo not given), the IC50 on Prostaglandin E synthase [3] is 5860 nM.

Consider `Cc1ccc(-c2ccc(C(C(=O)Nc3cccc(CCC(=O)O)c3C)C3CCCC3)cc2)cn1` (stereo not given), for which the Ratio IC50 in [4] was found to be 5.

As for `O=C(O)CCc1ccc(NC(=O)C(c2ccc(-c3cncc(Cl)c3)cc2)C2CCCC2)cc1` (stereo not given), the IC50 at Prostaglandin E synthase [3] is over 20000 nM.

For the compound `Cc1ncccc1-c1ccc(C(C(=O)Nc2cccc(CCC(=O)O)c2C)C2CCCC2)cc1` (stereo not given), the IC50 on Prostaglandin E synthase [3] was over 20000 nM.

In the case of `Cc1c(CCC(=O)O)cccc1NC(=O)C(c1ccc(-c2cncc(Cl)c2)cn1)C1CCCC1` (stereo not given), the IC50 at Prostaglandin E synthase [3] stood at 2330 nM.

As for `Cc1c(CCC(=O)O)cccc1C(=O)NC(c1ccc(-c2cncc(Cl)c2)cc1)C1CCCC1` (stereo not given), the IC50 at Prostaglandin E synthase [3] is over 20000 nM.

In the case of `Cc1c(CCC(=O)O)cccc1NC(=O)[C@@H](c1ccc(-c2cccnc2)cc1)C1CCCC1`, the Papp A→B at 2 h, 2 µM in series [5] was determined as 3.6 ×10⁻⁶ cm/s.

As to `Cc1c(CCC(=O)O)cccc1NC(=O)C(c1ccc(-c2ccncc2)cc1)C1CCCC1` (stereo not given), the IC50 on Prostaglandin E synthase [3] came to 9260 nM.

For `Cc1c(NC(=O)[C@H](c2ccc(-c3cncc(Cl)c3)cc2)C2CCCC2)cccc1[C@@H](C)CC(=O)O`, the figures for the IC50 (in series [1]; at Prostaglandin E synthase [2]) were 17700 nM and 12600 nM, respectively.

For the compound `Cc1c(NC(=O)[C@@H](c2ccc(-c3cncc(Cl)c3)cc2)C2CCCC2)cccc1[C@H](C)CC(=O)O`, the IC50 was determined as 895 nM in [1] and 339 nM on Prostaglandin E synthase [2].

As to `Cc1c(CCC(=O)O)cccc1NC(=O)C(c1ccc(-c2cccc(Cl)c2)cc1)C1CCCC1` (stereo not given), the IC50 on Prostaglandin E synthase [3] amounted to 276 nM.

Take `CC(C)Cc1ccc(C(C)C(=O)O)cc1` (stereo not given): the result in the series on Mus musculus [6] was Active.

In the case of `Cc1c(CCC(=O)O)cccc1NC(=O)C(c1ccc(-c2cncc(Cl)c2)cc1)C1CCN(C)C1=O` (stereo not given), the IC50 on Prostaglandin E synthase [3] was over 20000 nM.

Take `Cc1c(CCC(=O)O)cccc1NC(=O)C(c1cccc(-c2cccnc2)c1)C1CCCC1` (stereo not given): on Prostaglandin E synthase [3], the IC50 was over 20000 nM.

As for `Cc1c(NC(=O)[C@@H](c2ccc(-c3cncc(Cl)c3)cc2)C2CCCC2)cccc1OCC(=O)O`, in series [5], the Papp A→B at 2 h, 2 µM turned out to be 0.22 ×10⁻⁶ cm/s. In addition, the bioavailability in series [7] was 8%.

In the case of `Cc1c(CCc2nnn[nH]2)cccc1NC(=O)C(c1ccc(-c2cncc(Cl)c2)cc1)C1CCCC1` (stereo not given), the IC50 at Prostaglandin E synthase [3] was 152 nM.

Take `Cc1c(CCC(=O)O)cccc1NC(=O)[C@@H](c1ccc(-c2cncc(Cl)c2)c(F)c1)C1CCCC1`: the Papp A→B at 2 h, 2 µM in series [5] stood at 5.9 ×10⁻⁶ cm/s. Besides, the bioavailability in series [7] worked out at 72%.

As to `Cc1c(CCC(=O)O)cccc1NC(=O)C(c1ccc(-c2ccccn2)cc1)C1CCCC1` (stereo not given), on Prostaglandin E synthase [3], the IC50 is over 20000 nM.

Consider `Cc1cncc(-c2ccc(C(C(=O)Nc3cccc(CCC(=O)O)c3C)C3CCCC3)cc2)c1` (stereo not given), for which the IC50 in series [1] is 2590 nM; on Prostaglandin E synthase [2], 818 nM.

In the case of `Cc1c(CCC(=O)O)cccc1N(C)C(=O)C(c1ccc(-c2cncc(Cl)c2)cc1)C1CCCC1` (stereo not given), on Prostaglandin E synthase [3], the IC50 is over 20000 nM.

As for `Cc1c(NC(=O)[C@H](c2ccc(-c3cncc(Cl)c3)cc2)C2CCCC2)cccc1[C@H](C)CC(=O)O`, the IC50 in [1] worked out at 8460 nM; at Prostaglandin E synthase [2], 3080 nM.

As to `Cc1c(CCC(=O)O)cccc1NC(=O)C(c1ccc(-c2cncc(Cl)c2)nc1)C1CCCC1` (stereo not given), the IC50 at Prostaglandin E synthase [3] turned out to be 327 nM.

Consider `Cc1c(CCC(=O)O)cccc1NC(=O)[C@@H](c1ccc(-c2cncc(Cl)c2)cc1)C1CCCC1`, for which the outcome in the series with Rattus norvegicus [8], in the series with Rattus norvegicus [9], with Mus musculus [15], in the series on Mus musculus [16] and in the series on Rattus norvegicus [18] was Active. Further, the hepatic extraction ratio at […], 1 µM in series [10] came out at 0.02. Besides, the Papp A→B at 2 h, 2 µM in series [5] is 6.9 ×10⁻⁶ cm/s. Moreover, the efflux ratio at 2 h, 2 µM in series [11] was 2.9. Moreover, the bioavailability in [7] stood at 98%. The values for the IC50 (in [1]; on Prostaglandin E synthase [2]) were 1270 nM and 765 nM, respectively. This compound gave a CL/F in [12] of 5 mL/min/kg. The compound further displayed a Vdss in series [13] of 0.9 L/kg. The compound also gave a half-life in [14] of 4.3 h. Moreover, the Ratio in series [17] was determined as 3.

Consider `Cc1c(CCC(=O)O)cccc1NC(=O)[C@@H](c1ccc(-c2cncc(C(F)(F)F)c2)cc1)C1CCCC1`, for which the Papp A→B at 2 h, 2 µM in [5] is 8 ×10⁻⁶ cm/s. This compound also came in with a bioavailability in series [7] of 73%.

In the case of `CCc1cncc(-c2ccc(C(C(=O)Nc3cccc([C@@H](CC)CC(=O)O)c3C)C3CCCC3)cc2)c1` (stereo not given in full), in [10], the hepatic extraction ratio at […], 1 µM was 0.44. Moreover, the IC50 came out at 190 nM in [1] and 203 nM at Prostaglandin E synthase [2].

For the compound `Cc1c(CCC(=O)O)cccc1NC(=O)C(c1ccccc1)c1ccc(-c2cncc(Cl)c2)cc1` (stereo not given), the IC50 on Prostaglandin E synthase [3] is 4490 nM.

For `O=C(O)CCc1cccc(NC(=O)C(c2ccc(-c3cncc(Cl)c3)cc2)C2CCCC2)c1OC(F)(F)F` (stereo not given), the IC50 at Prostaglandin E synthase [3] was over 20000 nM.

`Cc1c(NC(=O)[C@@H](c2ccc(-c3cncc(Cl)c3)cc2)C2CCCC2)cccc1[C@@H](C)CC(=O)O`: the IC50 in series [1] stood at 1360 nM; at Prostaglandin E synthase [2], 584 nM.

As to `Cc1c(CCC(=O)O)cccc1NC(=O)C(c1ccc(-c2cncc(CC(C)C)c2)cc1)C1CCCC1` (stereo not given), the IC50 at Prostaglandin E synthase [2] came to 191 nM.
